According to US8217068B2, “Compound with anesthetics activity, methods for its production and pharmaceutical compositions comprising the same” (Universidade Federal de Pernambuco—UFPE, priority 2007, dated 2012):

Experiments:
Assay type in all cases: in vivo
Wistar male rats [1] = experiment: Activity on cardiovascular system: blood pressure and EKG recording in awake animals; settings: 10 mg/kg single dose through external jugular vein
Procedure: Hypotension and reduction of heart rate are the major concern of alpha-2 adrenoceptor agonist as clonidine. These effects are justified by decreasing the central nervous system sympathetic outflow due to activation of alpha-2 adrenoceptor. With the aim to investigate if LPSF-PT-31, GIRSUPAN could cross the brain barrier and reduces the hemodynamic response, Wistar male rats weighing 230-280 grams were prepared for blood pressure and electrocardiogram (EKG) recording. The heart rate was estimated by analysis of EKG. LPSF-PT-31, GIRSUPAN (10 mg/kg) was injected trough external jugular vein in a single dose in awaked animals. The blood pressure and the heart rate were not changed showing that LPSF-PT-31, GIRSUPAN is a stable compound for the cardiovascular system differently that occurs with clonidine.

male Swiss mice [2] = experiment: Sedative activity by measuring motor activity (Motor Activity Monitor)
Procedure: The sedative activity of 3-(2-chloro-6-fluoro-benzyl)-imidazolidine-2,4-dione LPSF-PT-31, GIRSUPAN was investigated in male Swiss mice weighting 18-24 grams by measuring the motor activity (Motor Activity Monitor, Letica LE 8811). In this equipment the animals are positioned in an open square field and a set of invisible beans cross the field. The interruption of the beans was used to quantify the motor activity. After a period of adaptation the motor activity of the animals was measured during 20 min.
Decrease of motor activity represents reduction of brain activity and this observation is useful to investigate the effect of drug with sedative, hipnotic, anxyolitic and general anesthetic properties (Bioorg. Med. Chem. 2006, 14:632-640). Thus, measurement of motor activity is not a method to identify a specific group of pharmacological class.

male Swiss mice [3] = experiment: Isobolographic analysis of the combination with morphine (analgesic effect, DE50); settings: i.p., combination of fractions of DE50 of each drug, FIG. 3
Procedure: First, we determined the dose of morphine that cause 50% of maximal analgesic effect (DE50) after administration (i.p.) in incremental doses. […] Fraction of association of DE50 of each drug was administrated and the DE50 of combination was determined. A isobolographic analysis (FIG. 3) using the DE50 of each drug and of the combination was performed using a computer program (Life Sci 1989 45: 947-961) to determine the type of interaction.

male Swiss mice [4] = experiment: Hot Plate Test, analgesic activity (% AA) after i.p. administration
Procedure: The activity of several compounds with action in central nervous system as opioids, which the main drug is morphine, and the alpha-2 adrenoceptor agonist as clonidine have been identified by this method.
The analgesic activity of LPSF-PT-31, GIRSUPAN was investigated in male Swiss mice weighting 18-24 grams using the Hot Plate Test method (Brain Res. 1983, 245-252). The animals were positioned on a hot plate stabilized at 52° C. using the equipment Analgesic Meter-Letica LE 7406. When the pain threshold was achieved the animals raised and licked the front paw to cool down the temperature. The time between positioning the animals on the plate and lick the paw was the latency of the pain reaction. The maximal time (cut-off) allowed to the animals staying on the hot plate was three times the latency time measured on the control. The cut-off was very important to avoid skin damage of the paw.
The analgesic effect of the tested compounds was converted to a unit denominated analgesic activity (% AA) (Brain Res. 1983, 245-252) calculated by equation % AA=((post-drug latency)−(control latency))/((cut off)−(control latency))×100. The experimental protocol used to test the analgesic effect of the compound LPSF-PT-31, GIRSUPAN, consisted to measure the AA in the control condition (before drug administration) and after (i.p.) intraperitoneal administration of increasing dose (1, 5, 10 and 15 mg·kg^−1).
In another experimental group, dimethyl sulfoxide used as vehicle for diluting LPSF-PT-31, GIRSUPAN, was i.p. administered at same volume used for the tested drug. The AA was measured until complete recovery to the control condition.

Wistar male rats [5] = experiment: Hot Plate analgesic effect after intrathecal administration
Procedure: Stimulation of alpha-2 adrenoceptors distributed at spinal cord cause analgesia. […] Thus, the analgesic activity of LPSF-PT-31, GIRSUPAN was investigated after intrathecal administration. Wistar male rats weighting 240-280 grams were positioned in abdominal under light general anesthesia with sevoflurane. Puncture between L4-L5 was performed with low diameter needle (29 G) and LPSF-PT-31, GIRSUPAN was injected at dose of 20, 40, 80 or 160 μg diluted in constant volume of 50 μl. Sevoflurane was the elected anesthetic due to low blood solubility causing a fast induction and recovery of anesthesia.
Thus, the animals were completely recovered few minutes after punction and injection LPSF-PT-31, GIRSUPAN and AA activity started to measure from 10 minutes. […] The maximal analgesic effect measured by Hot Plate was ca. 40% sustained by 180 minutes. This intensity of analgesic effect is observed with alpha-2 adrenoceptor agonist as clonidine.

Which blood pressure (Wistar male rats [1]) does the source give for `O=C1CNC(=O)N1Cc1c(F)cccc1Cl` [LPSF-PT-31, 3-(2-chloro-6-fluoro-benzyl)-imidazolidine-2,4-dione] here?
The blood pressure was “not changed”.

And the “heart rate (estimated by analysis of EKG)” value (Wistar male rats [1])?
The value was “not changed”.

And the “reduction of motor activity” value (male Swiss mice [2]; 10 mg·kg^−1, motor activity measured during 20 min, FIG. 5)?
Its value is “ca. 80%”.

And the “intensity of motor activity reduction versus positive control” value (male Swiss mice [2]; 10 mg·kg^−1, positive control midazolam, FIG. 5)?
The value was “comparable to midazolam”.

What about the “reversal of decrease of motor activity by yohimbine” value (male Swiss mice [2]; yohimbine) of the same compound?
Its value is “completely reversed”.

What about the “type of interaction with morphine (isobolographic analysis of DE50)” value (male Swiss mice [3]) of the same compound?
Its value is “strong synergic interaction”.

What about the “maximal effect (% AA)” value (male Swiss mice [4]; 15 mg·kg^−1 i.p.) of the same compound?
The value was “about 80 % AA”.

And the “duration of plateau of analgesic effect” value (male Swiss mice [4]; i.p.)?
Its value is 40 to 50 min.

What about the “time of peak of analgesic effect” value (male Swiss mice [4]; i.p.) of the same compound?
Its value is “approximately 20 min”.

And the “time to complete recovery from the analgesic effect” value (male Swiss mice [4]; i.p.)?
Its value is 100 to 120 min.

What about the “effect on % AA (analgesic activity)” value (male Swiss mice [4]; i.p. 1, 5, 10 and 15 mg·kg^−1, hot plate 52° C., FIG. 1) of the same compound?
The value was “increased the % AA in a dose-dependent manner”.

What about the “reversal of analgesic effect by naloxone (antagonist of opioid receptor)” value (male Swiss mice [4]; naloxone 1 mg·kg^−1 i.p.) of the same compound?
The value was “partially reversed”.

And the “reversal of analgesic effect by flumazenil (antagonist of benzodiazepine receptor)” value (male Swiss mice [4]; previous treatment with flumazenil 0.3 mg·kg^−1)?
Its value is “not reversed”.

What about the “reversal of analgesic effect by yohimbine (antagonist of alpha-2 adrenoceptor)” value (male Swiss mice [4]; yohimbine 5 mg·kg^−1 i.p., compound 10 mg·kg^−1, FIG. 2) of the same compound?
Its value is “completely reversed”.

And the “duration of maximal analgesic effect” value (Wistar male rats [5]; intrathecal)?
The value was 180 min.

What about the “maximal analgesic effect measured by Hot Plate” value (Wistar male rats [5]; intrathecal) of the same compound?
Its value is “ca. 40%”.

And the “effect on pain reaction after intrathecal administration” value (Wistar male rats [5]; intrathecal 20, 40, 80 or 160 μg in 50 μl, FIG. 4)?
Its value is “reduces the pain reaction after intrathecal administration in a dose-dependent manner”.
